Assay results as given in patent EP1094711B1, “METHODS FOR ERADICATION OF NANOBACTERIA” (Nanobac Oy, priority 1998, dated 2000).
Counter-ions that a name gives are not always drawn. Like-named read-outs stand apart in the source and are kept apart here.

Columns and labels:
Assay type in all cases: cell-based
nanobacteria [1] = assay: Antibiotic sensitivity test by Minimal Inhibition Concentration (MIC), 96-well plates, absorbance at 650 nm; conditions: for antinanobacterial effect in the in vitro test (in words): in vitro MIC test; for IC90: 90% inhibition, read-out: MIC 90
Description: Antibiotic sensitivity tests were carried out by measuring Minimal Inhibition Concentration (MIC), a common practice in clinical microbiology.
The tests were performed in 96-well plates. DMEM (commercial cell culture medium) containing 10% gamma-irradiated fetal bovine serum (FBS)(dose about 3 Mrads; this treatment inactivates nanobacteria in the serum so that the basic medium is sterile) was used as the basic culture medium. These components are commercially available, e.g., from Gibco. The antibiotic stock solutions were sterile filtered through 0.2 micrometer filters. The stock solutions were then serially diluted (into the basal culture medium) to provide a final starting concentration of 0.5 mg/ml and 1:2 dilutions therefrom, unless otherwise specified. For each antibiotic three parallel tests were performed using all the antibiotic dilutions and, additionally, positive and negative control experiments. […] 100 µl of dilutions of the nanobacteria inoculum were added to all wells except the negative controls. The plates were incubated at mammalian cell culture conditions (37° Celsius, 5% carbon dioxide, 95% humid air). The absorbance values at 650 nm were recorded by using an ELISA reader at the start, and at 4, 8, 12, 14 days. […] Calculations were based on absorbance curves where absorbance was plotted against concentration of the antibiotic.

SF-nanobacteria = assay: Chemical disinfection of SF-nanobacteria; set-up: key to Resistance of SF-nanobacteria to chemical disinfectants (survival) / partial or total detachment on exposure: +++: No effect; ++: Reduced survival; +: Markedly reduced survival; - : No survival; * = partial or total detachment on exposure; conditions: for Resistance of SF-nanobacteria to chemical disinfectants (survival): room temperature, survival after subculture compared to diluent only
Text: The cultures were exposed to the disinfectants after removal of the culture medium. For the autoclaving, UV, microwave, and drying treatments, the medium was removed and an equal amount of PBS used instead. For the heat treatments, the SF-nanobacteria were harvested by scraping the culture vessel followed by centrifugation of the medium. The obtained pellet was suspended in PBS and used in the test. After treatments the SF-nanobacteria were subcultured in DMEM medium and the growth followed by light microscopy to see the adherence and typical mineralization.
The concentrations of the chemicals used were those commonly used for disinfection or as instructed by the manufacturer. The chemicals included 70% ethanol, 2% glutaraldehyde, 4% formaldehyde, 0.5% hypochlorite, 3% hydrogen peroxide, 1M hydrochloric acid (HCl), 1M sodium hydroxide (NaOH) , 1% sodium dodecyl sulfate (SDS), 1% Tween 80, 1 % Triton X-100, 3M guanidium-hydrochloride, 3M urea, 1% Virkon® (Antec International Ltd., Suffolk, England; 100% product contains 50% potassium persulfate, 5% sulfaminoic acid), 1.5% Erifenol® (Orion OY, Finland; 100% product contains <5% NaOH, <5% o-benzyl-p-chlorophenol, 5-15% p-chloro-m-cresol), 1% Klorilli® (Orion OY, Finland; 100% product contains sodium metasilicate, sodium N-chloro-p-toluenesulfonamide-3-hydrate and 20,000 ppm active chlorine), and 3% Buraton® (Schülke & Mayr, Germany; 100% product contains 4.5% formaldehyde, 6.8% glyoxal, 1.5% glyoxylic acid, 6% dimethylaurylbenzyl-ammonium chloride). The dilutions to be used were freshly prepared on the day of exposure in sterile distilled water. As a positive control, only diluent was used. Negative control contained only culture medium.
The SF-nanobacteria were exposed to the chemicals for 10 and 30 minutes at room temperature after removal of the culture medium. After exposure, the disinfectant solution was removed and fresh medium added (with a neutralization step in the case of HCl and NaOH). If any significant deattachment occurred, nanobacteria were recovered by centrifugation, and subcultured. The exposed serum-free cultures were passaged 1:10 after 48 hours and the growth was followed by light microscopy for three weeks.

nanobacteria [2] = assay: Nanobacterial growth and biofilm formation on stents with metal ions in the culture medium; conditions: salts added to the culture medium
Text: Nanobacteria also absorb some heavy metals. Nanobacteria can be stained well with silver or copper compounds. […] Silver and copper parts or platings on surfaces, such as catheters or stents, can provide an antinanobacterial effect by preventing nanobacterial biofilm formation. In in vitro tests nanobacteria avidly formed biofilm on two different commercial stents made of a plastic type of material. This biofilm formation was prevented by the addition of silver or copper salts to the culture medium.

[3] = light or radiation study, 288 h, 12 day time point, DMEM with 10% gamma-irradiated FBS
[4] = light or radiation study, 288 h, read-out: MIC 50
[5] = 50% inhibition, 12 day time point, DMEM with 10% gamma-irradiated FBS

Compound: O=C(O)CN(CCOCCOCCN(CC(=O)O)CC(=O)O)CC(=O)O [EGTA]
- antinanobacterial effect in the in vitro test (in words) (nanobacteria [1]): antinanobacterial effects

Compound: CC(O)C(=O)O (centres unmarked) [lactic acid]
- IC50 (nanobacteria [1]; short chain organic acids tested later in culture tests, read-out: MIC50 values): 10000 to 50000 µM

Compound: CC(=O)Oc1ccccc1C(=O)O [Acetylsalicylic acid]
- IC50 (nanobacteria [1]; 288 h, read-out: MIC 50): 500 µg/mL
- antinanobacterial effect in the in vitro test (in words) (nanobacteria [1]): weak

Compound: CC(O)(P(=O)(O)O)P(=O)(O)O [Ethidronate]
- antinanobacterial effect in the in vitro test (in words) (nanobacteria [1]): bacteriocidic effect
- IC90 (nanobacteria [1]; [3]): 0.5 µg/mL
- IC50 (nanobacteria [1]; [4]): 0.1 µg/mL

Compound: O=C(O)CC(O)(CC(=O)O)C(=O)O [Citrate]
- IC90 (nanobacteria [1]; 288 h, 12 day time point): 1 mM
- IC50 (nanobacteria [1]; 288 h, read-out: MIC 50): 200 µM
- antinanobacterial effect in the in vitro test (in words) (nanobacteria [1]): effective antinanobacterial agent

Compound: Vitamin D
- IC50 (nanobacteria [1]; 50% inhibition, 12 day time point, read-out: MIC 50): > 25 µM
- antinanobacterial effect in the in vitro test (in words) (nanobacteria [1]): very weak inhibitory effect

Compound: CCCCCCCCCCCCOS(=O)(=O)[O-].[Na+] [1 % SDS, sodium dodecyl sulfate]
- Resistance of SF-nanobacteria to chemical disinfectants (survival) (SF-nanobacteria; Exposure time 10 min): +++
- Resistance of SF-nanobacteria to chemical disinfectants (survival) (SF-nanobacteria; Exposure time 30 min): +++

Compound: NC(N)=O [3M Urea, urea]
- Resistance of SF-nanobacteria to chemical disinfectants (survival) (SF-nanobacteria; Exposure time 10 min): +++
- Resistance of SF-nanobacteria to chemical disinfectants (survival) (SF-nanobacteria; Exposure time 30 min): +++

Compound: CC[C@H]1OC(=O)[C@H](C)[C@@H](O[C@H]2C[C@@](C)(OC)[C@@H](O)[C@H](C)O2)[C@H](C)[C@@H](O[C@@H]2O[C@H](C)C[C@H](N(C)C)[C@H]2O)[C@](C)(OC)C[C@@H](C)C(=O)[C@H](C)[C@@H](O)[C@]1(C)O [Clarithromycin]
- IC50 (nanobacteria [1]; [4]): > 500 µg/mL

Compound: hypochlorite [0.5% hypochlorite]
- Resistance of SF-nanobacteria to chemical disinfectants (survival) (SF-nanobacteria; Exposure time 10 min): +++
- Resistance of SF-nanobacteria to chemical disinfectants (survival) (SF-nanobacteria; Exposure time 30 min): +++

Compound: silver
- biofilm formation on commercial stents (nanobacteria [2]): prevented

Compound: O=C1CN(/N=C/c2ccc([N+](=O)[O-])o2)C(=O)N1 [Nitrofurantoin]
- IC90 (nanobacteria [1]; [3]): 1.5 µg/mL
- IC50 (nanobacteria [1]; [4]): 0.6 µg/mL

Compound: CCO [70% ethanol, ethanol]
- Resistance of SF-nanobacteria to chemical disinfectants (survival) (SF-nanobacteria; Exposure time 10 min): +++
- Resistance of SF-nanobacteria to chemical disinfectants (survival) (SF-nanobacteria; Exposure time 30 min): +++

Compound: CC[C@@H](CO)NCCN[C@@H](CC)CO [Ethambutol]
- IC50 (nanobacteria [1]; [4]): > 500 µg/mL

Compound: Polymyxin B
- MIC 50 (nanobacteria [1]; [5]): >500 mg/L

Compound: O=P(O)(O)C(Cl)(Cl)P(=O)(O)O [Chlodronate]
- antinanobacterial effect in the in vitro test (in words) (nanobacteria [1]): bacteriocidic effect
- IC90 (nanobacteria [1]; [3]): 0.5 µg/mL
- IC50 (nanobacteria [1]; [4]): 0.1 µg/mL

Compound: CN[C@H](CC(C)C)C(=O)N[C@H]1C(=O)N[C@@H](CC(N)=O)C(=O)N[C@H]2C(=O)N[C@H]3C(=O)N[C@H](C(=O)N[C@H](C(=O)O)c4cc(O)cc(O)c4-c4cc3ccc4O)[C@H](O)c3ccc(c(Cl)c3)Oc3cc2cc(c3O[C@@H]2O[C@H](CO)[C@@H](O)[C@H](O)[C@H]2O[C@H]2C[C@](C)(N)[C@H](O)[C@H](C)O2)Oc2ccc(cc2Cl)[C@H]1O [Vancomycin]
- antinanobacterial effect in the in vitro test (in words) (nanobacteria [1]): effective bacteriostat
- IC90 (nanobacteria [1]; [3]): 250 µg/mL
- IC50 (nanobacteria [1]; [4]): 130 µg/mL

Compound: CO[C@H]1/C=C/O[C@@]2(C)Oc3c(C)c(O)c4c(O)c(c(/C=N/N5CCN(C)CC5)c(O)c4c3C2=O)NC(=O)/C(C)=C\C=C\[C@H](C)[C@H](O)[C@@H](C)[C@@H](O)[C@@H](C)[C@H](OC(C)=O)[C@@H]1C [Rifampicin]
- IC50 (nanobacteria [1]; [4]): > 500 µg/mL

Compound: O=CCCCC=O [2% glutaraldehyde, glutaraldehyde]
- Resistance of SF-nanobacteria to chemical disinfectants (survival) (SF-nanobacteria; Exposure time 10 min): +++
- Resistance of SF-nanobacteria to chemical disinfectants (survival) (SF-nanobacteria; Exposure time 30 min): +++

Compound: Cc1ncc([N+](=O)[O-])n1CCO [Metronidasole]
- MIC 50 (nanobacteria [1]; [5]): >500 mg/L

Compound: N=C(N)N [3M Guanidium HCl, guanidium-hydrochloride]
- Resistance of SF-nanobacteria to chemical disinfectants (survival) (SF-nanobacteria; Exposure time 30 min): 0
- effect of chemical disinfection on SF-nanobacteria (in words) (SF-nanobacteria; exposure at room temperature, then subculture): deattachment
